Structures are written as SMILES.

One may read the melting point as the temperature of the solid-liquid transition. For the molecule `CC(C)n1nc(-c2c(-c3ccccc3)nc(N)nc2-n2cncn2)ccc1=O` [Example 131, 6-[2-Amino-4-phenyl-6-(1H-1,2,4-triazol-1-yl)-5-pyrimidinyl]-2-isopropyl-3(2H)-pyridazinone], the melting point was in the range of 266 to 268 °C.

For `CC(C)n1nc(-c2c(-c3ccccc3)nc(N)nc2-n2cnc3ccccc32)ccc1=O` [Example 132, 6-[2-Amino-4-(1H-benzimidazol-1-yl)-6-phenyl-5-pyrimidinyl]-2-isopropyl-3(2H)-pyridazinone], the melting point is 242 to 244 °C.

Consider `CC(C)n1nc(-c2c(Nc3ccccc3)nc(N)nc2-c2ccccc2)ccc1=O` [Example 133, 6-(2-amino-4-anilino-6-phenyl-5-pyrimidinyl)-2-isopropyl-3(2H)-pyridazinone], for which the melting point was in the range of 240 to 242 °C.

`Cc1nc(Nc2nc(N)nc(-c3ccccc3)c2-c2ccc(=O)n(C(C)C)n2)sc1C` [Example 134, 6-{2-Amino-4-[(4,5-dimethyl-1,3-thiazol-2-yl)amino]-6-phenyl-5-pyrimidinyl}-2-isopropyl-3(2H)-pyridazinone] gave a melting point of 256 to 257.5 °C. In the case of `CC(C)n1nc(-c2c(Nc3ccccn3)nc(N)nc2-c2ccccc2)ccc1=O` [Example 135, 6-[2-Amino-4-phenyl-6-(2-pyridinylamino)-5-pyrimidinyl]-2-isopropyl-3(2H)-pyridazinone] it was 163 to 164 °C. Molecule `CC(C)n1nc(-c2c(NC(=N)N)nc(N)nc2-c2ccccc2)ccc1=O` [Example 137, N-[2-amino-5-(1-isopropyl-6-oxo-1,6-dihydro-3-pyridazinyl)-6-phenyl-4-pyrimidinyl]guanidine] displayed a melting point of 272 to 274.5 °C.

The molecule `CC(C)n1nc(-c2c(Sc3ccccc3)nc(N)nc2-c2ccccc2)ccc1=O` [Example 138, 6-[2-Amino-4-phenyl-6-(phenylthio)-5-pyrimidinyl]-2-isopropyl-3(2H)-pyridazinone] came in with a melting point of 214 to 215 °C. The molecule `CC(C)n1nc(-c2c(-c3ccccc3)nc(N)[nH]c2=O)ccc1=O` [Example 140, 6-(2-amino-6-oxo-4-phenyl-1,6-dihydro-5-pyrimidinyl)-2-isopropyl-3(2H)-pyridazinone] returned a melting point of 291 to 295 °C.

For `CC(C)n1nc(-c2c(-c3ccccc3)nc(N)[nH]c2=S)ccc1=O` [Example 141, 6-(2-amino-4-phenyl-6-thioxo-1,6-dihydro-5-pyrimidinyl)-2-isopropyl-3(2H)-pyridazinone], the melting point lay in the range of 295 to 299 °C.

`CSc1nc(N)nc(-c2ccccc2)c1-c1ccc(=O)n(C)n1` [Example 142, 6-[2-Amino-4-(methylthio)-6-phenyl-5-pyrimidinyl]-2-methyl-3(2H)-pyridazinone] showed a melting point of 233 to 235 °C. For the molecule `Cn1nc(-c2c(-c3ccccc3)nc(N)nc2[S+](C)[O-])ccc1=O` (centres unmarked) [Example 143, 6-[2-amino-4-(methylsulfinyl)-6-phenyl-5-pyrimidinyl]-2-methyl-3(2H)-pyridazinone], the melting point was > 250 °C. In the case of `COc1nc(N)nc(-c2ccccc2)c1-c1ccc(=O)n(C)n1` [Example 144, 6-(2-Amino-4-methoxy-6-phenyl-5-pyrimidinyl)-2-methyl-3(2H)-pyridazinone] it was 218 to 220 °C; in that of `Cn1nc(-c2c(NCc3ccccc3)nc(N)nc2-c2ccccc2)ccc1=O` [Example 145, 6-[2-Amino-4-(benzylamino)-6-phenyl-5-pyrimidinyl]-2-methyl-3(2H)-pyridazinone], > 250 °C. In the case of `Cn1nc(-c2c(NCc3ccccn3)nc(N)nc2-c2ccccc2)ccc1=O` [Example 146, 6-{2-amino-4-phenyl-6-[(2-pyridinylmethyl)amino]-5-pyrimidinyl}-2-methyl-3(2H)-pyridazinone] it was 248 to 250 °C; in that of `Cn1nc(-c2c(Nc3ccccc3)nc(N)nc2-c2ccccc2)ccc1=O` [Example 147, 6-(2-Amino-4-anilino-6-phenyl-5-pyrimidinyl)-2-methyl-3(2H)-pyridazinone], 252 to 254 °C; in that of `CSc1nc(N)nc(-c2ccc(F)cc2)c1-c1ccc(=O)n(C(C)C)n1` [Example 148, 6-[2-amino-4-(4-fluorophenyl)-6-(methylthio)-5-pyrimidinyl]-2-isopropyl-3(2H)-pyridazinone], 232 to 234 °C. In the case of `COc1nc(N)nc(-c2ccc(F)cc2)c1-c1ccc(=O)n(C(C)C)n1` [Example 149, 6-[2-amino-4-(4-fluorophenyl)-6-methoxy-5-pyrimidinyl]-2-isopropyl-3(2H)-pyridazinone] it was 207 to 209 °C; in that of `COc1nc(N)nc(-c2ccc(S(C)(=O)=O)cc2)c1-c1ccc(=O)n(C(C)C)n1` [Example 150, 6-{2-amino-4-methoxy-6-[4-(methylsulfonyl)phenyl]-5-pyrimidinyl}-2-isopropyl-3(2H)-pyridazinone], 148 to 151 °C; in that of `CC(C)n1nc(-c2c(-c3ccc(F)cc3)nc(N)nc2[S+](C)[O-])ccc1=O` (centres unmarked) [Example 151, 6-[2-amino-4-(4-fluorophenyl)-6-(methylsulfinyl)-5-pyrimidinyl]-2-isopropyl-3(2H)-pyridazinone], 238 to 240 °C. In turn, `CSc1nc(N)nc(-c2ccc(S(C)(=O)=O)cc2)c1-c1ccc(=O)n(C(C)C)n1` [Example 151, 6-[2-amino-4-[4-(methylsulfonyl)phenyl]-6-(methylthio)-5-pyrimidinyl]-2-isopropyl-3(2H)-pyridazinone] returned a melting point of 241 to 243 °C. As for `CSc1nc(N)nc(-c2ccc([S+](C)[O-])cc2)c1-c1ccc(=O)n(C(C)C)n1` (centres unmarked) [Example 152, 6-[2-amino-4-[4-(methylsulfinyl)phenyl]-6-(methylthio)-5-pyrimidinyl]-2-isopropyl-3(2H)-pyridazinone], the melting point was 221 to 223 °C. In the case of `COc1nc(N)nc(-c2ccc([S+](C)[O-])cc2)c1-c1ccc(=O)n(C(C)C)n1` (centres unmarked) [Example 153, 6-{2-Amino-4-methoxy-6-[4-(methylsulfinyl)phenyl]-5-pyrimidinyl}-2-isopropyl-3(2H)-pyridazinone] it was 127 to 130 °C.

As for `CC(C)n1nc(-c2c(NCc3ccccc3)nc(N)nc2-c2ccc(F)cc2)ccc1=O` [Example 156, 6-[2-Amino-4-(benzylamino)-6-(4-fluorophenyl)-5-pyrimidinyl]-2-isopropyl-3(2H)-pyridazinone], the melting point was in the range of 191 to 192 °C.

With `CC(C)n1nc(-c2c(NCc3ccccn3)nc(N)nc2-c2ccc(F)cc2)ccc1=O` [Example 157, 6-{2-Amino-4-(4-fluorophenyl)-6-[(2-pyridinylmethyl)amino]-5-pyrimidinyl}-2-isopropyl-3(2H)-pyridazinone], the melting point was in the range of 210 to 212 °C. In the case of `CC(C)n1nc(-c2c(Nc3ccccc3)nc(N)nc2-c2ccc(F)cc2)ccc1=O` [Example 158, 6-[2-Amino-4-anilino-6-(4-fluorophenyl)-5-pyrimidinyl]-2-isopropyl-3(2H)-pyridazinone] it was > 250 °C; in that of `CC(C)n1nc(-c2c(-c3ccccc3)nc(N)n(CC(=O)OC(C)(C)C)c2=O)ccc1=O` [Example 159, tert-butyl [2-amino-5-(1-isopropyl-6-oxo-1,6-dihydro-3-pyridazinyl)-6-oxo-4-phenyl-1(6H)-pyrimidinyl]acetate], 138 to 141 °C.

The values are drawn from patent publication US20050043315A1, “Aminopyrimidine compounds, processes for their preparation and pharmaceutical compositions containing them” (priority 2002, published 2005).
